From patent US6441195B1, “Substituted sulphonylamino(thio) carbonyl compounds” (Bayer Aktiengesellschaft, priority 1995, dated 2002)

Tests used:
Format in all cases: in vivo
weeds = test: Pre-emergence test (greenhouse), activity against weeds; conditions: in words
Summary of the method: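 Compound formulated in acetone with alkylaryl polyglycol ether emulsifier, diluted in water, and watered onto soil about 24 h after sowing, dosed by application rate per unit area. Damage rated after three weeks as % versus untreated control (0% = no action).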

Maize = test: Pre-emergence test/Greenhouse, Maize; conditions: in vivo
Summary of the method: (§1)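 Percent damage relative to untreated control plants, scored three weeks after treatment, is the read-out (0% meaning no effect). Treatment consisted of watering the soil with an emulsified aqueous preparation roughly 24 h after seeds were sown, at constant water volume per area.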

Soya beans = test: Pre-emergence test/Greenhouse, Soya beans; conditions: in vivo
Summary of the method: as §1

Lolium = test: Pre-emergence test/Greenhouse, Lolium; conditions: after three weeks
Summary of the method: as §1

Poa = test: Pre-emergence test/Greenhouse, Poa; conditions: after three weeks
Summary of the method: as §1

Sorghum = test: Pre-emergence test/Greenhouse, Sorghum; conditions: after three weeks
Summary of the method: as §1

Ambrosia = test: Pre-emergence test/Greenhouse, Ambrosia; conditions: after three weeks
Summary of the method: as §1

Matricaria = test: Pre-emergence test/Greenhouse, Matricaria; conditions: after three weeks
Summary of the method: as §1

Solanum = test: Pre-emergence test/Greenhouse, Solanum; conditions: after three weeks
Summary of the method: as §1

Row | Compound | activity against weeds (weeds) | degree of damage to the plants (% damage vs untreated control), Maize (Maize) | degree of damage to the plants (% damage vs untreated control), Soya beans (Soya beans) | degree of damage to the plants (% damage vs untreated control), Lolium (Lolium; 60 g of ai./ha) | degree of damage to the plants (% damage vs untreated control), Poa (Poa; 60 g of ai./ha) | degree of damage to the plants (% damage vs untreated control), Sorghum (Sorghum; 60 g of ai./ha) | degree of damage to the plants (% damage vs untreated control), Ambrosia (Ambrosia; 60 g of ai./ha) | degree of damage to the plants (% damage vs untreated control), Matricaria (Matricaria; 60 g of ai./ha) | degree of damage to the plants (% damage vs untreated control), Solanum (Solanum; 60 g of ai./ha) | degree of damage to the plants (% damage vs untreated control), Lolium (Lolium; 125 g of ai./ha) | degree of damage to the plants (% damage vs untreated control), Poa (Poa; 125 g of ai./ha) | degree of damage to the plants (% damage vs untreated control), Sorghum (Sorghum; 125 g of ai./ha) | degree of damage to the plants (% damage vs untreated control), Ambrosia (Ambrosia; 125 g of ai./ha) | degree of damage to the plants (% damage vs untreated control), Matricaria (Matricaria; 125 g of ai./ha) | degree of damage to the plants (% damage vs untreated control), Solanum (Solanum; 125 g of ai./ha)
1 | C#CCSc1nn(C(=O)NS(=O)(=O)c2c(C)cccc2C(=O)OC)c(=O)n1C1CC1 [Example 160] | very strong activity against weeds | 30% | 10% | 90% | 90% | 60% | 90% | 95% | 90% | – | – | – | – | – | –
2 | CCCOC(=O)c1cccc(C)c1S(=O)(=O)NC(=O)n1nc(OCC)n(C)c1=O [Example 21] | very strong activity against weeds | 0% | 0% | – | – | – | – | – | – | 95% | 95% | 95% | 95% | 95% | 95%
3 | CSc1nn(C(=O)NS(=O)(=O)c2c(C)cccc2C(=O)OC(C)C)c(=O)n1C [Example 8] | very strong activity against weeds | 30% | 0% | 95% | 90% | 80% | 90% | 95% | 95% | – | – | – | – | – | –
4 | C#CCSc1nn(C(=O)NS(=O)(=O)c2c(C)csc2C(=O)OC)c(=O)n1C [Example 51] | very strong activity against weeds | 0% | 30% | – | – | – | – | – | – | 80% | 80% | 80% | 95% | 95% | 95%
5 | CCOC(=O)c1scc(C)c1S(=O)(=O)NC(=O)n1nc(C(C)C)n(C)c1=O [Example 68] | very strong activity against weeds | 5% | 10% | – | – | – | – | – | – | 80% | 90% | 60% | 95% | 100% | 95%
6 | CCSc1nn(C(=O)NS(=O)(=O)c2c(C)cccc2C(=O)OC)c(=O)n1OC [Example 157] | very strong activity against weeds | 0% | 20% | 90% | 80% | 80% | 95% | 100% | 90% | – | – | – | – | – | –
7 | Cc1cccc(C(=O)OC(C)C)c1S(=O)(=O)NC(=O)n1nc(OC(C)C)n(C)c1=O [Example 18] | very strong activity against weeds | 10% | 0% | 80% | 95% | 90% | 95% | 95% | 95% | – | – | – | – | – | –
